Reference: patent US20170349593A1, “BTK INHIBITORS” (MERCK SHARP & DOHME CORP., priority 2014, published 2017)

Experiments:
[1] = system: adenosine uptake into HeLa cells; experiment: [3H]Adenosine uptake assay; assay type: cell-based; settings: Homo sapiens; accumulation of [3H]adenosine into HeLa cells; concentration range 10 μM to 0.032 nM; read-out: ADU inhibition IC50
Method: Compounds are also screened in an adenosine uptake functional cellular assay using the protocol described below:
Adenosine uptake activity was determined by monitoring the accumulation of tritiated adenosine into HeLa cells (ATCC catalog #CCL-2) using a PMT-based radiometric detection instrument. In this assay, the potency (IC50) of each compound was determined from a ten point (1:3 serial dilution; final compound concentration range in assay from 10 μM to 0.032 nM) titration curve using the following outlined procedure. To each well of a 96-well CytoStar-T scintillating microplate (Perkin Elmer Catalog #RPNQ0163), 25 000 HeLa cells in 100 μL of growth medium comprising: Minimum Essential Media (Life Technologies Catalog #11095-080)+10% (v/v) foetal bovine serum (FBS; Sigma Aldrich Catalog #F2442) was added. These cells were incubated overnight at 37° C. in a humidified atmosphere with 5% (v/v) CO2. After this time the growth medium was removed and replaced with 40 μL assay medium comprising: Hanks balanced salts solution (HBSS; Thermo Fisher Catalog # SH30268.01)+5% (v/v) FBS. Compound stock solutions in DMSO were diluted in assay medium to 2.5× final compound concentration maintaining a constant DMSO concentration of 0.25% (v/v). 40 μL of compound in assay medium was dispensed into individual wells of the Cytostar-T plates and the plates were incubated for 30 minutes under ambient laboratory conditions. Following this incubation, 20 μL of 500 nM [^3H] adenosine (American Radiolabeled Chemicals Inc. Catalog #ART0287) in assay medium was added and incubated for a further 60 minutes under ambient laboratory conditions. The amount of radiolabel accumulation was then determined using a Perkin Elmer Topcount NXT microplate reader. In brief, HeLa cells adhere to the bottom of the Cytostar-T plate, uptake of [^3H]adenosine into these cells brings the radiolabel into sufficient proximity to excite the scintillant in the base of the plates. These events are captured by single PMT, time-resolved coincidence counting. IC50 values were determined by 4 parameter robust fit of counts per second values vs. (Log10)) compound concentrations.

[2] = target: T1, BTK enzyme (recombinant full-length BTK, hBTK) (Homo sapiens, UniProt Q06187); experiment: Btk enzyme activity assay (LANCE TR-FRET); assay type: biochemical; settings: 50 pM hBTK, 25 μM ATP, 60 minute compound and enzyme incubation, concentration range 1 μM to 0.017 nM, read-out: BTK binding IC50
T1 construct: recombinant protein from baculovirus-transfected S 19 cells: full-length BTK, 6 HIS-tag cleaved; 6 HIS-tag (cleaved yes); made in house
T1 sequence (Q06187 whole entry): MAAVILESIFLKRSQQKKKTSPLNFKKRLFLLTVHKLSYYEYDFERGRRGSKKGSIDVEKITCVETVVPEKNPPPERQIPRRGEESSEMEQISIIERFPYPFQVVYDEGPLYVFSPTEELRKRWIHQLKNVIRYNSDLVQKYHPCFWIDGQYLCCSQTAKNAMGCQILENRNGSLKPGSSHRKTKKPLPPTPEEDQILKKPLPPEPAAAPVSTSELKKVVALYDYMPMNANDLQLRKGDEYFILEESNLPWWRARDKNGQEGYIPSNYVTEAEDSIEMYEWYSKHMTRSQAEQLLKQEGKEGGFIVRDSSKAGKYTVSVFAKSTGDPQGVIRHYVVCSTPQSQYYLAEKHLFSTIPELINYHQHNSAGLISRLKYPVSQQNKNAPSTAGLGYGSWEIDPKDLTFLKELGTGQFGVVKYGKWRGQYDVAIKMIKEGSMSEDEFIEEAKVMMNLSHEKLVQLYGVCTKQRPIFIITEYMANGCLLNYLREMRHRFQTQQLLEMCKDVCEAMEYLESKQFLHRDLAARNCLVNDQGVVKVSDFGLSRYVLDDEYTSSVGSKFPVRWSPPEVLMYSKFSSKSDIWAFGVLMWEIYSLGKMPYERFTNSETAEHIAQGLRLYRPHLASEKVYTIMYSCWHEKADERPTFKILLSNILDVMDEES

| Compound | IC50 [1] | IC50 [2] |
| --- | --- | --- |
| COc1cc(C(=O)Nc2cc(C(F)(F)F)ccn2)ccc1-c1nc([C@H]2CN(C(=O)C(C)C)[C@@H](C)CO2)n2c(Cl)cnc(N)c12 [Example 15, 4-{8-amino-5-chloro-3-[(2R,5S)-5-methyl-4-(2-methylpropanoyl)morpholin-2-yl]imidazo[1,5-a]pyrazin-1-yl}-3-methoxy-N-[4-(trifluoromethyl)pyridin-2-yl]benzamide] | 3260 nM | 4.14 nM |
| CCC(=O)N1C[C@H](c2nc(-c3ccc(C(=O)Nc4cc(C(F)(F)F)ccn4)cc3OC)c3c(N)ncc(Cl)n23)OC[C@@H]1C [Example 16, 4-{8-amino-5-chloro-3-[(2R,5S)-5-methyl-4-propanoylmorpholin-2-yl]imidazo[1,5-a]pyrazin-1-yl}-3-methoxy-N-[4-(trifluoromethyl)pyridin-2-yl]benzamide] | 2790 nM | 1.25 nM |
| COc1cc(C(=O)Nc2cc(C(F)(F)F)ccn2)ccc1-c1nc([C@H]2CN(C(C)=O)[C@@H](C)CO2)n2c(Cl)cnc(N)c12 [Example 17, 4-{3-[(2R,5S)-4-acetyl-5-methylmorpholin-2-yl]-8-amino-5-chloroimidazo[1,5-a]pyrazin-1-yl}-3-methoxy-N-[4-(trifluoromethyl)pyridin-2-yl]benzamide] | 1620 nM | 2.27 nM |
| COc1cc(C(=O)Nc2cc(C(F)(F)F)ccn2)ccc1-c1nc([C@H]2CN(C(=O)C3(C)CC3)[C@@H](C)CO2)n2c(Cl)cnc(N)c12 [Example 18, 4-(8-amino-5-chloro-3-{(2R,5S)-5-methyl-4-[(1-methylcyclopropyl)carbonyl]morpholin-2-yl}imidazo[1,5-a]pyrazin-1-yl)-3-methoxy-N-[4-(trifluoromethyl)pyridin-2-yl]benzamide] | 3230 nM | 2.8 nM |
| CCOc1cc(C(=O)Nc2cc(C(F)(F)F)ccn2)ccc1-c1nc([C@H]2CN(C(=O)CC)[C@@H](C)CO2)n2c(Cl)cnc(N)c12 [Example 19, 4-{8-amino-5-chloro-3-[(2R,5S)-5-methyl-4-propanoylmorpholin-2-yl]imidazo[1,5-a]pyrazin-1-yl}-3-ethoxy-N-[4-(trifluoromethyl)pyridin-2-yl]benzamide] | ≥ 10000 nM | 1.23 nM |
| CCOc1cc(C(=O)Nc2cc(C(F)(F)F)ccn2)ccc1-c1nc([C@H]2CN(C(C)=O)[C@@H](C)CO2)n2c(Cl)cnc(N)c12 [Example 20, 4-{3-[(2R,5S)-4-acetyl-5-methylmorpholin-2-yl]-8-amino-5-chloroimidazo[1,5-a]pyrazin-1-yl}-3-ethoxy-N-[4-(trifluoromethyl)pyridin-2-yl]benzamide] | 3910 nM | 1.36 nM |
| CCOc1cc(C(=O)Nc2cc(C(F)(F)F)ccn2)ccc1-c1nc([C@H]2CN(C(=O)[C@H](C)OC)[C@@H](C)CO2)n2c(Cl)cnc(N)c12 [Example 21, 4-(8-amino-5-chloro-3-{(2R,5S)-4-[(2S)-2-methoxypropanoyl]-5-methylmorpholin-2-yl}imidazo[1,5-a]pyrazin-1-yl)-3-ethoxy-N-[4-(trifluoromethyl)pyridin-2-yl]benzamide] | 7270 nM | 1.43 nM |
| CCOc1cc(C(=O)Nc2cc(C(F)(F)F)ccn2)ccc1-c1nc([C@H]2CN(C(=O)[C@H](C)O)[C@@H](C)CO2)n2c(Cl)cnc(N)c12 [Example 22, 4-(8-amino-5-chloro-3-{(2R,5S)-4-[(2S)-2-hydroxypropanoyl]-5-methylmorpholin-2-yl}imidazo[1,5-a]pyrazin-1-yl)-3-ethoxy-N-[4-(trifluoromethyl)pyridin-2-yl]benzamide] | 4530 nM | 1.21 nM |
| CCOc1cc(C(=O)Nc2cc(C(F)(F)F)ccn2)ccc1-c1nc([C@H]2CN(Cc3cnn(C)c3)[C@@H](C)CO2)n2c(Cl)cnc(N)c12 [Example 23, 4-(8-amino-5-chloro-3-{(2R,5S)-5-methyl-4-[(1-methyl-1H-pyrazol-4-yl)methyl]morpholin-2-yl}imidazo[1,5-a]pyrazin-1-yl)-3-ethoxy-N-[4-(trifluoromethyl)pyridin-2-yl]benzamide] | 1200 nM | 3.02 nM |
| CCOc1cc(C(=O)Nc2cc(C(F)(F)F)ccn2)ccc1-c1nc([C@H]2CN(CC)[C@@H](C)CO2)n2c(Cl)cnc(N)c12 [Example 24, 4-{8-amino-5-chloro-3-[(2R,5S)-4-ethyl-5-methylmorpholin-2-yl]imidazo[1,5-a]pyrazin-1-yl}-3-ethoxy-N-[4-(trifluoromethyl)pyridin-2-yl]benzamide] | 2350 nM | 1.54 nM |
| COc1cc(C(=O)Nc2cc(C(F)(F)F)ccn2)ccc1-c1nc([C@H]2CN(Cc3cnn(C)c3)[C@@H](C)CO2)n2c(Cl)cnc(N)c12 [Example 25, 4-(8-amino-5-chloro-3-{(2R,5S)-5-methyl-4-[(1-methyl-1H-pyrazol-4-yl)methyl]morpholin-2-yl}imidazo[1,5-a]pyrazin-1-yl)-3-methoxy-N-[4-(trifluoromethyl)pyridin-2-yl]benzamide] | 930 nM | 1.94 nM |
| CCN1C[C@H](c2nc(-c3ccc(C(=O)Nc4cc(C(F)(F)F)ccn4)cc3OC)c3c(N)ncc(Cl)n23)OC[C@@H]1C [Example 26, 4-{8-amino-5-chloro-3-[(2R,5S)-4-ethyl-5-methylmorpholin-2-yl]imidazo[1,5-a]pyrazin-1-yl}-3-methoxy-N-[4-(trifluoromethyl)pyridin-2-yl]benzamide] | 1020 nM | 3.62 nM |
| CCOc1cc(C(=O)Nc2cc(C(F)(F)F)ccn2)ccc1-c1nc([C@H]2CN(C3CCOCC3)[C@@H](C)CO2)n2c(Cl)cnc(N)c12 [Example 27, 4-{8-amino-5-chloro-3-[(2R,5S)-5-methyl-4-(tetrahydro-2H-pyran-4-yl)morpholin-2-yl]imidazo[1,5-a]pyrazin-1-yl}-3-ethoxy-N-[4-(trifluoromethyl)pyridin-2-yl]benzamide] | 1880 nM | 2.22 nM |
| COCCC(=O)N1CC(N2C[C@H](c3nc(-c4ccc(C(=O)Nc5cc(C(F)(F)F)ccn5)cc4OC)c4c(N)nccn34)OC[C@@H]2C)C1 [Example 28, 4-(8-amino-3-{(2R,5S)-4-[1-(3-methoxypropanoyl)azetidin-3-yl]-5-methylmorpholin-2-yl}imidazo[1,5-a]pyrazin-1-yl)-3-methoxy-N-[4-(trifluoromethyl)pyridin-2-yl]benzamide] | ≥ 10000 nM | 7.61 nM |
| COc1cc(C(=O)Nc2cc(C(F)(F)F)ccn2)ccc1-c1nc([C@H]2CN(C3CN(C(=O)C4CC4)C3)[C@@H](C)CO2)n2ccnc(N)c12 [Example 29, 4-(8-amino-3-{(2R,5S)-4-[1-(cyclopropylcarbonyl)azetidin-3-yl]-5-methylmorpholin-2-yl}imidazo[1,5-a]pyrazin-1-yl)-3-methoxy-N-[4-(trifluoromethyl)pyridin-2-yl]benzamide] | 3860 nM | 3.45 nM |
| COc1cc(C(=O)Nc2cc(C(F)(F)F)ccn2)ccc1-c1nc([C@H]2CN(C3CN(Cc4c(F)cccc4F)C3)[C@@H](C)CO2)n2ccnc(N)c12 [Example 30, 4-(8-amino-3-{(2R,5S)-4-[1-(2,6-difluorobenzyl)azetidin-3-yl]-5-methylmorpholin-2-yl}imidazo[1,5-a]pyrazin-1-yl)-3-methoxy-N-[4-(trifluoromethyl)pyridin-2-yl]benzamide] | 1040 nM | 10.7 nM |
| COc1cc(C(=O)Nc2cc(C(F)(F)F)ccn2)ccc1-c1nc([C@H]2CN(C3CN(Cc4ccc(F)cc4)C3)[C@@H](C)CO2)n2ccnc(N)c12 [Example 31, 4-(8-amino-3-{(2R,5S)-4-[1-(4-fluorobenzyl)azetidin-3-yl]-5-methylmorpholin-2-yl}imidazo[1,5-a]pyrazin-1-yl)-3-methoxy-N-[4-(trifluoromethyl)pyridin-2-yl]benzamide] | 1040 nM | 4.49 nM |
| COc1cc(C(=O)Nc2cc(C(F)(F)F)ccn2)ccc1-c1nc([C@H]2CN(C3CN(Cc4ccccc4F)C3)[C@@H](C)CO2)n2ccnc(N)c12 [Example 32, 4-(8-amino-3-{(2R,5S)-4-[1-(2-fluorobenzyl)azetidin-3-yl]-5-methylmorpholin-2-yl}imidazo[1,5-a]pyrazin-1-yl)-3-methoxy-N-[4-(trifluoromethyl)pyridin-2-yl]benzamide] | 1070 nM | 6.41 nM |
| COCCC(=O)N1CC(C(=O)N2C[C@H](c3nc(-c4ccc(C(=O)Nc5cc(C(F)(F)F)ccn5)cc4OC)c4c(N)nccn34)OC[C@@H]2C)C1 [Example 33, 4-{8-amino-3-[(2R,5S)-4-{[1-(3-methoxypropanoyl)azetidin-3-yl]carbonyl}-5-methylmorpholin-2-yl]imidazo[1,5-a]pyrazin-1-yl}-3-methoxy-N-[4-(trifluoromethyl)pyridin-2-yl]benzamide] | ≥ 10000 nM | 2.05 nM |
